Experimental data as given in patent publication US20050244502A1, “Composition for enhancing absorption of a drug and method” (priority 2004, published 2005).

Tests used:
in vitro = settings: human
in vivo = settings: rat, 1 mg/kg
Description: A dosing solution of DDAVP in water, C971P, LPC or C971P/LPC was directly injected into a 10-cm segment of rat colon. Blood was collected over a 2 hr period to assess the extent of systemic absorption from the various formulations.

Calu-3 cells [1] = experiment: Permeability (Papp) of DDAVP across Calu-3 cell monolayers on Transwell filters; settings: for additive permeability enhancement or change in epithelial resistance in the presence of Carbopol polymers (in words): enhancer with Carbopol polymers (Example 11)
Calu-3 cells [2] = experiment: Acute cytotoxicity assay (Alamar Blue) in Calu-3 cells; format: cell-based, human
Description: FIG. 2 depicts an Alamar Blue Assay—Black bar indicates the % of the cell survival after 2 hrs treatment of LPC at 0-0.25%; gray bar indicates the combination of LPC with 0.5% of C971P.
This assay is based on the ability of live cells to enzymatically reduce Alamar blue dye which indicates the relative percentage of cells that survive the exposure to the various treatments. Calu-3 cells exposed to buffer for 2 hr were used as the positive control with 100% cell survival.

Calu-3 cells [3] = experiment: TEER measurement (cell integrity and reversibility) in Calu-3 cells; format: cell-based, human
Description: The asterisk (delete scatters with) (*) represent (delete marker present) those samples where TEER recovered to the original level within 12 hrs after washout of the treatment.
Transepithelial electrical resistance (TEER) measures the integrity of the epithelial barrier. […] Return of the TEER values to initial levels indicates recovery to baseline barrier properties. TEER measurements were done in confluent highly resistant Calu-3 cells cultured in Transwell filters with handheld STX-2 electrodes connected to EVOM Voltohmmeter. […] After the removal of apical treatment, TEER recovered to the original values.

[4] = Intra-nasal DADLE absorption in rabbits; format: in vivo; settings: DADLE 1 mg/kg via syringe microsprayer in rabbit nostril
Description: Intra-nasal delivery of the model pentapepdide DADLE in water, C971P, LPC or C971P/LPC formulation was studied in rabbits. […] The C971P/LPC formulation enhanced DADLE absorption by >50% compared to LPC alone.

With `NC(=O)CC[C@@H]1NC(=O)[C@H](Cc2ccccc2)NC(=O)[C@H](Cc2ccc(O)cc2)NC(=O)CCSSC[C@@H](C(=O)N2CCC[C@H]2C(=O)N[C@H](CCCN=C(N)N)C(=O)NCC(N)=O)NC(=O)[C@H](CC(N)=O)NC1=O` [DDAVP, 1 deamino-8-D-arginin-vasopressin] the Papp (in vitro) was 0.04 ± 0.003 ×10⁻⁶ cm/s and the bioavailability (in vivo) was 0.1 ± 0.1%.

In the case of `CCCCCCCCCC(=O)[O-].[Na+]` [sodium caprate], the “additive permeability enhancement or change in epithelial resistance in the presence of Carbopol polymers (in words)” value (Calu-3 cells [1]) is reported as “do not show additive permeability enhancement advantage or change in epithelial resistance” and the “effect of Carbopol 971P on acute cytotoxicity of the enhancer (in words)” value (Calu-3 cells [2]; enhancer combined with Carbopol 971P, Alamar Blue, Calu-3 cells) is reported as “failed to reduce the acute cytotoxicity”.

With L-α-lysophosphatidylcholine [LPC] the “DDAVP Papp increase compared with 0.5% C971P alone” value (Calu-3 cells [1]; LPC 0.01-0.25% combined with 0.5% C971P, dose-dependent, Calu-3 cells) was “up to 32 fold”, the “TEER recovery after removal of treatment (in words)” value (Calu-3 cells [3]; 0.05% LPC with C971P also present) was “recovered” and the “TEER change (in words)” value (Calu-3 cells [3]; LPC alone, 2 hr treatment) was “dramatic drop in TEER”. The “extent of TEER drop (in words)” value (Calu-3 cells [3]; LPC with C971P present in the formulation, 2 hr treatment) was “significantly reduced”, the “DADLE exposure, times higher than water control” value [4] was 2.4 times and the cell survival (Calu-3 cells [2]; 0.05% LPC alone, 2 hr, buffer control = 100%) was “About 82%”. For the same compound, the cell survival (Calu-3 cells [2]; 0.05% LPC with C971P (0.5%) in the formulation, 2 hr) was 95%, the cell survival (Calu-3 cells [2]; 0.1% LPC alone, 2 hr) was 41% and the cell survival (Calu-3 cells [2]; 0.1% LPC in the presence of C971P (0.5%), 2 hr) was over 90%. The “cell survival (in words)” value (Calu-3 cells [2]; LPC alone 0-0.25%, 2 hr) was “dose-dependent reduction in survival”.

In the case of Phosphatidylcholine [Lecithin], the “DDAVP permeability enhancement or TEER drop (in words)” value (Calu-3 cells [1]; Carbopol added along with phosphatidylcholine) is reported as “no significant enhancement in permeability or drop in TEER”, the “DDAVP Permeability” value (Calu-3 cells [1]; Lecithin 1 mM) is reported as 0.045 ± 0.003 ×10⁻⁶ cm/s and the “DDAVP Permeability” value (Calu-3 cells [1]; Lecithin 2 mM) is reported as 0.044 ± 0.003 ×10⁻⁶ cm/s. The “DDAVP Permeability” value (Calu-3 cells [1]; Lecithin 5 mM) was 0.044 ± 0.004 ×10⁻⁶ cm/s, the “additive permeability enhancement or change in epithelial resistance in the presence of Carbopol polymers (in words)” value (Calu-3 cells [1]) was “do not show additive permeability enhancement advantage or change in epithelial resistance” and the “DDAVP permeability enhancement or TEER drop (in words)” value (Calu-3 cells [1]; phosphatidylcholine alone, Calu-3 cells) was “failed to show any measurable enhancement or TEER drop”. For the same compound, the “TEER after 2 hr (% initial)” value (Calu-3 cells [3]; Lecithin 1 mM) was “No change”, the “TEER after 2 hr (% initial)” value (Calu-3 cells [3]; Lecithin 2 mM) was “No change” and the “TEER after 2 hr (% initial)” value (Calu-3 cells [3]; Lecithin 5 mM) was “No change”.
